Results published in patent US20250388574A1, “HETEROCYCLIC COMPOUNDS AS TRIGGERING RECEPTOR EXPRESSED ON MYELOID CELLS 2 AGONISTS AND METHODS OF USE” (AMGEN INC., priority 2020, published 2025).

Columns and labels:
[1] = biological target: T1, hTREM2 (Homo sapiens, UniProt Q9NZC2); experiment: Phospho-Syk AlphaLisa assay in HEK293T-hTREM2 cells expressing human TREM2 and DAP12 (Example A2); format: cell-based; design: expressed in transfected cells; host or cells: HEK293T-hTREM2 cells; settings: HEK293 cells, Syk phosphorylation, Examples 276-283
T1 sequence (Q9NZC2 19-230): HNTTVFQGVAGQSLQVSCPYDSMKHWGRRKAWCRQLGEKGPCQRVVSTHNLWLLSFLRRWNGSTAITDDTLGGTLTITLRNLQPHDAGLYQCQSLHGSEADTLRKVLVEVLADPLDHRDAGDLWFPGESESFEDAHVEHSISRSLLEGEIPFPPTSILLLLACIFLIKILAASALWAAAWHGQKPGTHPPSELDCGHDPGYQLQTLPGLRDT
T1 sequence (O43914 22-113 partner): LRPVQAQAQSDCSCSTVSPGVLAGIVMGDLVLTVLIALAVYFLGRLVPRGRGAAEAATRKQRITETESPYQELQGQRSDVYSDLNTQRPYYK
Method: Measurement of TREM2 agonist potency was done using a HEK cell line expressing human TREM2 and DAP12 (HEK293T-hTREM2 cells). Binding of small molecules to, and activation of, TREM2 increases the phosphorylation of Syk. The resultant levels of Syk phosphorylation were measured using a commercial AlphaLisa reagent kit. To perform the assay, HEK-hTREM2 cells were plated at 14,000 cells per well in a 384 well plate, in 25 μL of complete growth media and incubated at 37° C., 5% CO2 for 20-24 hours. Prior to the assay, test compounds were diluted in the 384 well plates in assay buffer and allowed to equilibrate for 30 minutes. Growth media was removed from cell plates by inversion on blotting paper, and 25 μL of test compounds in assay buffer was added to cells. Cells were incubated for 45 minutes at room temperature. After 45 minutes, assay buffer was removed and 10 μL of lysis buffer was added. Plates were shaken for 20 minutes at 350 RPM at room temperature. After complete lysis, AlphaLisa reagents were added to the lysate, and fluorescence intensity was measured using a Perkin Elmer Envision plate reader. Intensities were used to generate a standard curve, and % activation was calculated. Curve fitting was performed using Prism v9 software, log(agonist) vs response—variable slope (four parameters), and EC50s were calculated from the curve fit.
The results presented in Table 11 have been generated with the in vitro assay described above for Examples 276-283. This assay may be used to test any of the compounds described herein to assess and characterize a compound's ability to act as an agonist of TREM2.

[2] = biological target: T1, hTREM2; experiment: Phospho-Syk AlphaScreen/AlphaLISA assay in TREM2 and DAP12 overexpressing HEK293 cells (Example A1); format: cell-based; design: expressed in transfected cells; settings: HEK293 cells; for EC50: read-out: hTREM2 EC50
Method in brief: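 Single-cell-cloned HEK293 stably overexpressing TREM2 and DAP12, plated 20,000 cells/well for 20 h, then exposed to compounds (1% DMSO) 45 min at room temperature. Lysates probed for phospho-Syk by AlphaLISA sandwich (anti-pSyk, biotinylated anti-Syk); signal normalized to percent of control (100 nM anti-TREM2 antibody vs isotype) and fitted by 4-parameter logistic.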

For `COc1cc(C2CN(c3cc4nc(C)n(C)c(=O)c4c(-c4ccc(F)cc4F)n3)CCO2)ccn1` (stereo not drawn) [Example 279, 5-(2,4-difluorophenyl)-7-(2-(2-methoxypyridin-4-yl)morpholino)-2,3-dimethylpyrido[4,3-d]pyrimidin-4(3H)-one], the EC50 [1] was < 50 nM.

With `Cc1cc([C@H]2C[C@@H](c3cc4nc(C)n(C)c(=O)c4c(-c4ccc(F)cc4F)n3)CCO2)ccn1` (racemic) [Example 278, 5-(2,4-difluorophenyl)-2,3-dimethyl-7-(2-(2-methylpyridin-4-yl)tetrahydro-2H-pyran-4-yl)pyrido[4,3-d]pyrimidin-4(3H)-one] the EC50 [1] was 50 to 500 nM.

With `Cc1cc([C@H]2C[C@@H](c3cc4nc(C)n(C)c(=O)c4c(C45CC(C(F)(F)F)(C4)C5)n3)CCO2)ccn1` (racemic) [Example 281, 2,3-dimethyl-7-(2-(2-methylpyridin-4-yl)tetrahydro-2H-pyran-4-yl)-5-(3-(trifluoromethyl)bicyclo[1.1.1]pentan-1-yl)pyrido[4,3-d]pyrimidin-4(3H)-one] the EC50 [1] was < 50 nM.

`Cc1cc(C2CN(c3cc4nc(C)n(C)c(=O)c4c(-c4ccc(F)cc4F)n3)CCO2)ccn1` (stereo not drawn) [Example 276, 5-(2,4-difluorophenyl)-2,3-dimethyl-7-(2-(2-methylpyridin-4-yl)morpholino)pyrido[4,3-d]pyrimidin-4(3H)-one] was tested, and the EC50 [1] was < 50 nM.

`COc1cc(C2CN(c3cc4nc(C)n(C)c(=O)c4c(C45CC(C(F)(F)F)(C4)C5)n3)CCO2)ccn1` (stereo not drawn) [Example 283, 7-(2-(2-methoxypyridin-4-yl)morpholino)-2,3-dimethyl-5-(3-(trifluoromethyl)bicyclo[1.1.1]pentan-1-yl)pyrido[4,3-d]pyrimidin-4(3H)-one] gave an EC50 [1] of 50 to 500 nM.

For `Cc1cc(C2CN(c3cc4nc(C)n(C)c(=O)c4c(C45CC(C(F)(F)F)(C4)C5)n3)CCO2)ccn1` (stereo not drawn) [Example 282, 2,3-dimethyl-7-(2-(2-methylpyridin-4-yl)morpholino)-5-(3-(trifluoromethyl)bicyclo[1.1.1]pentan-1-yl)pyrido[4,3-d]pyrimidin-4(3H)-one], the EC50 [1] was < 50 nM.

With `Cc1cc([C@H]2C[C@@H](c3cc4nc(C)n(C)c(=O)c4c(-c4ccc(C(F)(F)F)nc4)n3)CCO2)ccn1` [Example 277, 2,3-dimethyl-7-(2-(2-methylpyridin-4-yl)tetrahydro-2H-pyran-4-yl)-5-(6-(trifluoromethyl)pyridin-3-yl)pyrido[4,3-d]pyrimidin-4(3H)-one] the EC50 [1] was 50 to 500 nM.

`Cc1cc(C2CN(c3cc4nc(C)n(C)c(=O)c4c(-c4ccc(C(F)(F)F)nc4)n3)CCO2)ccn1` (stereo not drawn) [Example 280, 2,3-dimethyl-7-(2-(2-methylpyridin-4-yl)morpholino)-5-(6-(trifluoromethyl)pyridin-3-yl)pyrido[4,3-d]pyrimidin-4(3H)-one] was tested, and the EC50 [1] was < 50 nM.

`Cc1nc2cc(N3CC[C@H](N4CCOCC4)C3)nc(-c3ccc(Cl)cc3F)c2c(=O)n1C` [Example 208, (S)-5-(4-chloro-2-fluorophenyl)-2,3-dimethyl-7-(3-morpholinopyrrolidin-1-yl)pyrido[4,3-d]pyrimidin-4(3H)-one] was tested, and the Emax [2] was “++ (Emax>100 and ≤200)” and the EC50 [2] was 3 to 100 µM.

For `Cc1nc2cc(N3CCC[C@H](N4CCCC4=O)C3)nc(-c3ccc(Cl)cc3F)c2c(=O)n1C` [Example 232, (S)-5-(4-chloro-2-fluorophenyl)-2,3-dimethyl-7-(3-(2-oxopyrrolidin-1-yl)piperidin-1-yl)pyrido[4,3-d]pyrimidin-4(3H)-one], the Emax [2] was “++++ (Emax>300)” and the EC50 [2] was 0.5 to 3 µM.

For `COc1cccc([C@@H]2CN(c3cc4nc(C)n(C)c(=O)c4c(-c4ccc(Cl)cc4F)n3)CCO2)c1` [Example 238, (R)-5-(4-chloro-2-fluorophenyl)-7-(2-(3-methoxyphenyl)morpholino)-2,3-dimethylpyrido[4,3-d]pyrimidin-4(3H)-one], the Emax [2] was “++++ (Emax>300)” and the EC50 [2] was 0.05 to 0.5 µM.

In the case of `COc1ccc([C@@H]2CN(c3cc4nc(C)n(C)c(=O)c4c(-c4ccc(Cl)cc4F)n3)CCO2)cc1` (single isomer, unassigned) [Example 79], the Emax [2] is reported as “+++ (Emax>200 and ≤300)” and the EC50 [2] is reported as 0.5 to 3 µM.

`Cc1nc2cc(N3CCO[C@@H]([C@@H]4CCO4)C3)nc(-c3ccc(Cl)cc3F)c2c(=O)n1C` (single isomer, unassigned) [Example 39] was tested, and the Emax [2] was “+++ (Emax>200 and ≤300)” and the EC50 [2] was 0.5 to 3 µM.

In the case of `CCCn1c(C)nc2cc(N3CCO[C@@H](c4cnn(C)c4)C3)nc(-c3ccc(Cl)cc3F)c2c1=O` [Example 152, 5-(4-chloro-2-fluorophenyl)-2-methyl-7-((2S)-2-(1-methyl-1H-pyrazol-4-yl)-4-morpholinyl)-3-propylpyrido[4,3-d]pyrimidin-4(3H)-one], the Emax [2] is reported as “+++ (Emax>200 and ≤300)” and the EC50 [2] is reported as < 0.05 µM.

For `Cc1nc2cc(N3CCO[C@@H](c4ccnc(OCC(F)(F)F)c4)C3)nc(-c3ccc(Cl)cc3F)c2c(=O)n1C` (single isomer, unassigned) [Example 96], the Emax [2] was “++++ (Emax>300)” and the EC50 [2] was 0.5 to 3 µM.

With `Cc1nc2cc(N3CCO[C@H](c4cccnc4)C3)nc(-c3ccc(Cl)cc3F)c2c(=O)n1C` (single isomer, unassigned) [Example 47] the Emax [2] was “++++ (Emax>300)” and the EC50 [2] was 3 to 100 µM.
